Results published in patent US20120088803A1, “CONTROL AGENT FOR SOFT ROT AND CONTROL METHOD FOR THE SAME” (Ishihara Sangyo Kaisha, Ltd, priority 2009, published 2012).

System: Erwinia carotovora (potato Erwinia carotovora)
Assay: Test for growth inhibition of potato Erwinia carotovora (PSA medium plate)
Format: cell-based
Conditions: for Growing state of Erwinia carotovora (formed colonies): PSA medium, 25 degrees C., 4 days, two plates per cell
Description: Reference test example: Test for growth inhibition of potato Erwinia carotovora
A test for growth inhibition of Erwinia carotovora in the case of direct application of the control agent to Erwinia carotovora was performed. To previously melted PSA medium (55 degrees C.), a predetermined amount of a pesticide 3-chloro-N-(3-chloro-5-trifluoromethyl-2-pyridyl)-alpha,alpha,alpha-trifluoro-2,6-dinit ro-p-toluidine (fluazinam, Frowncide SC (trade name), manufactured by Ishihara Sangyo Kaisha, Ltd.), ethaboxam wettable powder (Ethaboxam, Gardian (trade name), manufactured by LG Chemical), or streptomycin (Mycin wettable powder (trade name), manufactured by Hokko Chemical Industry Co., Ltd.) and a suspension of Erwinia carotovora (potato Erwinia carotovora) were added and the resulting mixture was stirred well, and then, poured in a plate. Then, the plate was cultured at 25 degrees C. for 4 days, and the growing state of Erwinia carotovora was examined. Thereafter, the formed colonies were examined according to the following three criteria. • +: Equal to the colonies of the untreated group • Plus or minus: Apparently less than the colonies of the untreated group • −: Almost no colonies

Question: `CCNc1nc(CC)c(C(=O)NC(C#N)c2cccs2)s1` (stereo not shown) [Ethaboxam WP, ethaboxam] was tested. Which “Growing state of Erwinia carotovora (formed colonies)” value (from here on “Growing state of Erwinia carotovora”) (Active ingredient concentration 100 ppm) did it give?
Answer: Its value is “+, +”.

Question: And the “Growing state of Erwinia carotovora” value (Active ingredient concentration 500 ppm)?
Answer: The value was “+, +”.

Question: What about the “Growing state of Erwinia carotovora” value (Active ingredient concentration 1000 ppm) of the same compound?
Answer: The value was “+, +”.

Question: And the “Growth inhibition of Erwinia carotovora (in words)” value (active ingredient concentration of 1000 ppm, direct application)?
Answer: Its value is “did not inhibit the growth”.
